Results reported in ChEMBL document CHEMBL5244231, “Total synthesis, chemical modification and structure-activity relationship of bufadienolides” (Eur J Med Chem, 2020).

Assays:
LNCaP [1] = experiment: Antiproliferative activity against human LNCaP cells assessed as cell growth inhibition; assay type: functional, cell-based
[2] = biological target: Sodium/potassium-transporting ATPase; experiment: Inhibition of NA+/K+ ATPase (unknown origin) activity assessed as inhibition constant; assay type: protein-complex assay, Homo sapiens
DU-145 = experiment: Antiproliferative activity against human DU-145 cells assessed as cell growth inhibition; assay type: functional, cell-based
PC-3 [3] = experiment: Antiproliferative activity against human PC-3 cells assessed as cell growth inhibition; assay type: functional, cell-based
[4] = biological target: Sodium/potassium-transporting ATPase; experiment: Inhibition of NA+/K+ ATPase (unknown origin) activity; assay type: protein-complex assay, Homo sapiens
MV4-11 [5] = experiment: Antitumor activity in human MV4-11 cells xenografted in mouse assessed as tumor growth inhibition at 4 mg/kg, IG administered every other day for 21 days relative to control; assay type: functional; conditions: MV4-11, po, 504 h, time 21 day
MV4-11 [6] = experiment: Antitumor activity in human MV4-11 cells xenografted in mouse assessed as tumor growth inhibition at 2 mg/kg, iv administered every other day for 21 days relative to control; assay type: functional; conditions: MV4-11, 504 h, time 21 day
Daudi = experiment: Antiproliferative activity against human Daudi cells assessed as cell growth inhibition by MTT assay; assay type: functional, cell-based
AGS = experiment: Antiproliferative activity against human AGS cells assessed as cell growth inhibition by MTT assay; assay type: functional, cell-based
HT-1080 = experiment: Antiproliferative activity against human HT-1080 cells assessed as cell growth inhibition by MTT assay; assay type: functional, cell-based
MCF7 = experiment: Antiproliferative activity against human MCF7 cells assessed as cell growth inhibition by MTT assay; assay type: functional, cell-based
MV4-11 [7] = experiment: Antiproliferative activity against human MV4-11 cells assessed as cell growth inhibition by MTT assay; assay type: functional, cell-based
HepG2 = experiment: Antiproliferative activity against human HepG2 cells assessed as cell growth inhibition by MTT assay; assay type: functional, cell-based
NCI-H2228 = experiment: Antiproliferative activity against human NCI-H2228 cells assessed as cell growth inhibition by MTT assay; assay type: functional, cell-based
PC-3 [8] = experiment: Antiproliferative activity against human PC-3 cells assessed as cell growth inhibition by MTT assay; assay type: functional, cell-based
HeLa [9] = experiment: Antiproliferative activity against human HeLa cells assessed as cell growth inhibition by MTT assay; assay type: functional, cell-based
Jurkat = experiment: Antiproliferative activity against human Jurkat cells assessed as cell growth inhibition by MTT assay; assay type: functional, cell-based
HeLa [10] = experiment: Antiproliferative activity against human HeLa cells assessed as cell growth inhibition incubated for 72 hrs by MTT assay; assay type: functional, cell-based
A549 = experiment: Antiproliferative activity against human A549 cells assessed as cell growth inhibition incubated for 72 hrs by MTT assay; assay type: functional, cell-based; conditions: A549, 72 h
Androgen receptor = biological target: T1, Androgen receptor (Homo sapiens, UniProt P10275); experiment: Binding affinity to AR (unknown origin) incubated for 4 hrs by fluorescence polarization assay
T1 sequence (P10275 whole entry): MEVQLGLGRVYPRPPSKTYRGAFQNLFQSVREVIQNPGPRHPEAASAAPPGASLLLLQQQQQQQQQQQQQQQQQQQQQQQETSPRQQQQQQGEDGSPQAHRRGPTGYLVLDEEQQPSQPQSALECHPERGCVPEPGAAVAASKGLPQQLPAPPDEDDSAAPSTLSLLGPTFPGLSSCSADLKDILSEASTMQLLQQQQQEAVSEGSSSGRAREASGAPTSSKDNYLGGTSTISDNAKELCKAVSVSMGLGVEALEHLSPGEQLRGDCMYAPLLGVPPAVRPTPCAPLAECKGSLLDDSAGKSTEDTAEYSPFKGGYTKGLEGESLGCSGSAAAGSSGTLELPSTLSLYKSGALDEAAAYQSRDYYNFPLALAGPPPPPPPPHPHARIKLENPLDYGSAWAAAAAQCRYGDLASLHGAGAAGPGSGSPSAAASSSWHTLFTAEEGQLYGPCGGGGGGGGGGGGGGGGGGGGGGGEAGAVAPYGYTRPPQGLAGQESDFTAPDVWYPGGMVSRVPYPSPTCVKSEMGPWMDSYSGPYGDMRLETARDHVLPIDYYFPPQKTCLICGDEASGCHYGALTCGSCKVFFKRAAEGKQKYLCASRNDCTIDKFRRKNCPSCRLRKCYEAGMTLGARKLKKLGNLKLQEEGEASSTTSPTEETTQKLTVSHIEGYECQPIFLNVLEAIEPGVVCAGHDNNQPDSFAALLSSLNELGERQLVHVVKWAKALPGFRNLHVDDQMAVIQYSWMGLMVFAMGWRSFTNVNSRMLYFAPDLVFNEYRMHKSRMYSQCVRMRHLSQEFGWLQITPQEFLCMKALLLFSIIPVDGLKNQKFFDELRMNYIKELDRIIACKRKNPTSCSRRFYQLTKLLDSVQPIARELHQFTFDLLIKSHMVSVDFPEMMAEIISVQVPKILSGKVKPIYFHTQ

PC-3 [11] = experiment: Antiproliferative activity against human PC-3 cells assessed as cell growth inhibition incubated for 48 hrs by MTT assay; assay type: functional, cell-based; conditions: PC-3, 48 h
LNCaP [12] = experiment: Antiproliferative activity against human LNCaP cells assessed as cell growth inhibition incubated for 48 hrs by MTT assay; assay type: functional, cell-based

Question: C[C@]12CC[C@H](O)C[C@H]1CC[C@@H]1[C@@H]2CC[C@]2(C)[C@@H](c3ccc(=O)[nH]c3)CC[C@]12O was tested. Which IC50 (LNCaP [1]) did it give?
Answer: 10000 nM

Question: What about the Ki [2] of the same compound?
Answer: 70000 nM

Question: And the IC50 (DU-145)?
Answer: 10000 nM

Question: What about the IC50 (PC-3 [3]) of the same compound?
Answer: 10000 nM

Question: How did the IC50 [4] turn out when C[C@]12CC[C@H](O)C[C@H]1CC[C@H]1C3=CC[C@H](c4ccc(=S)oc4)[C@@]3(C)CC[C@@H]12 was run?
Answer: 35800 nM

Question: C[C@]12CC[C@H](OC(=O)NC3CCNCC3)C[C@H]1CC[C@@H]1[C@@H]2CC[C@]2(C)[C@@H](c3ccc(=O)oc3)CC[C@]12O was tested. Which inhibition in vivo at 4 mg/kg (MV4-11 [5]) did it give?
Answer: 100%

Question: What about the inhibition in vivo at 2 mg/kg (MV4-11 [6]) of the same compound?
Answer: 100%

Question: What about the IC50 (Daudi) of the same compound?
Answer: 0.3 nM

Question: What about the IC50 (AGS) of the same compound?
Answer: 0.3 nM

Question: And the IC50 (HT-1080)?
Answer: 0.3 nM

Question: What about the IC50 (MCF7) of the same compound?
Answer: 0.3 nM

Question: And the IC50 (MV4-11 [7])?
Answer: 0.3 nM

Question: And the IC50 (HepG2)?
Answer: 0.3 nM

Question: What about the IC50 (NCI-H2228) of the same compound?
Answer: 0.3 nM

Question: And the IC50 (PC-3 [8])?
Answer: 0.3 nM

Question: And the IC50 (HeLa [9])?
Answer: 0.3 nM

Question: What about the IC50 (Jurkat) of the same compound?
Answer: 0.3 nM

Question: How did the IC50 (HeLa [10]) turn out when C[C@]12CC[C@H](OC(=O)C3CCNCC3)C[C@H]1CC[C@@H]1[C@@H]2CC[C@]2(C)[C@@H](c3ccc(=O)oc3)CC[C@]12O was run?
Answer: 0.76 nM

Question: And the IC50 (A549)?
Answer: 0.34 nM

Question: Which results are given for CN(C)C(=O)/C=C/C1=CO[C@]23CCC1[C@@]2(C)CC[C@H]1[C@H]3CC[C@@H]2C[C@@H](O)CC[C@@]21C?
Answer: IC50 (LNCaP [1]): 10000 nM; Ki [2]: 70000 nM; IC50 (DU-145): 10000 nM; IC50 (PC-3 [3]): 10000 nM

Question: For C[C@]12CC[C@H](O)CC1CCC1=C3CC[C@H](c4ccc(=O)oc4)[C@@]3(C)CCC12 (some centres undefined), which IC50 [4] is on record?
Answer: 5600 nM

Question: What about the IC50 (Androgen receptor) of the same compound?
Answer: > 50000 nM

Question: What about the IC50 (PC-3 [11]) of the same compound?
Answer: 16400 nM

Question: What about the IC50 (LNCaP [12]) of the same compound?
Answer: 6800 nM

Question: With C[C@]12CC[C@H](O)CC1CCC1C3=CC[C@H](c4ccc(=O)oc4)[C@@]3(C)CCC12 (some centres undefined) as the compound, how does the IC50 (Androgen receptor) read?
Answer: > 50000 nM

Question: With C[C@]12CC[C@H](OC(=O)N3CCNCC3)C[C@H]1CC[C@@H]1[C@@H]2CC[C@]2(C)[C@@H](c3ccc(=O)oc3)CC[C@]12O as the compound, how does the IC50 (HeLa [9]) read?
Answer: 0.77 nM
